ChEMBL document CHEMBL3865852, “PAR2 Modulators Derived from GB88” (ACS Med Chem Lett, 2016)
The source made the active and inactive calls. No cut-off for these calls is given here. Where a SMILES comes first, the peptide text is derived from it.

Tests used:
[1] = target: Proteinase-activated receptor 2 (Homo sapiens) (UniProt P55085); test: Antagonist activity at PAR2 in human HT-29 cells assessed as inhibition of 2f-LIGRLO-NH2-stimulated intracellular calcium release at 10 uM preincubated for 30 mins followed by 2f-LIGRLO-NH2 stimulation measured for 60 secs by Fluo-3 AM dye based FLIPR assay relative to control; format: functional, cell-based
[2] = target: T1, Proteinase-activated receptor 2 (Homo sapiens, UniProt P55085); test: Antagonist activity at PAR2 in human HT-29 cells assessed as inhibition of 2f-LIGRLO-NH2-stimulated intracellular calcium release preincubated for 30 mins followed by 2f-LIGRLO-NH2 stimulation measured for 60 sec by Fluo-3 AM dye based FLIPR assay; format: functional, cell-based
T1 sequence (P55085 whole entry): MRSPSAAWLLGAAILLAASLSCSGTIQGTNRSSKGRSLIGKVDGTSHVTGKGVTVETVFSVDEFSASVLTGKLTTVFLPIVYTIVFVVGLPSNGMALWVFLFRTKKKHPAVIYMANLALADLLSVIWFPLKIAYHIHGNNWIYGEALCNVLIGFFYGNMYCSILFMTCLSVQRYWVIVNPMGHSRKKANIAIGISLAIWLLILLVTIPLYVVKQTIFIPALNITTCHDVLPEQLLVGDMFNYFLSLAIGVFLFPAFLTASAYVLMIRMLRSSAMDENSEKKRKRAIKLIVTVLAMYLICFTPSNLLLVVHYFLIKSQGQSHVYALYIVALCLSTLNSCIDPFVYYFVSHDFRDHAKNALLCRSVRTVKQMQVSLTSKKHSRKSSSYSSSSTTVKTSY

[3] = target: T1, Proteinase-activated receptor 2; test: Agonist activity at PAR2 in human HT-29 cells assessed as increase in intracellular calcium release incubated for 30 mins measured for 60 secs by Fluo-3 AM dye based FLIPR assay relative to 2f-LIGRLO-NH2; format: functional, cell-based
[4] = target: Proteinase-activated receptor 2 (Homo sapiens) (UniProt P55085); test: Agonist activity at PAR2 in human HT-29 cells assessed as increase in intracellular calcium release at 10 uM incubated for 30 mins measured for 60 secs by Fluo-3 AM dye based FLIPR assay relative to 2f-LIGRLO-NH2; format: functional, cell-based
[5] = Solubility of compound; format: physicochemical
[6] = Elimination half life in Wistar rat liver homogenate at 10 uM by LC/MS/MS analysis; format: ADME, tissue-based; conditions: read-out: beta t1/2
[7] = Half life in Wistar rat plasma at 10 uM by LC/MS/MS analysis; format: ADME, cell-free
[8] = Stability in Wistar rat plasma at 10 uM measured up to 3 hrs by LC/MS/MS analysis; format: ADME, cell-free; conditions: read-out: Stability
Rattus norvegicus = test: Antiinflammatory activity in Wistar rat acute paw edema model assessed as inhibition of 2f-LIGRLO-NH2-induced […] swelling at 10 mg/kg administered via oral gavage for 2 hrs followed by 2f-LIGRLO-NH2 addition measured up to 3 hrs; format: functional, organism-based
[9] = AUC (0 to 6 hrs) in Wistar rat at 10 mg/kg, po administered via gavage; format: ADME, organism-based; design: time < 6 hr, dose 10 mg/kg, route oral; conditions: in vivo
[10] = Time at which maximum plasma concentration stays above 2 times in vitro PAR2 IC50 in Wistar rat at 10 mg/kg, po administered via gavage; format: ADME, organism-based; conditions: in vivo
[11] = target: T1, Proteinase-activated receptor 2; test: Antagonist activity at PAR2 in human HT-29 cells assessed as inhibition of endogenous trypsin-stimulated intracellular calcium release by Fluo-3 AM dye based FLIPR assay; format: functional, cell-based

SMILES	inhibition [1] [%]	Activity [4] [%]	also measured
CC[C@H](C)[C@H](NC(=O)[C@H](CC1CCCCC1)NC(=O)c1ccno1)C(=O)N1CCC(c2ccc(Cl)cc2)CC1	43 to 69	–	–
CC[C@H](C)[C@H](NC(=O)[C@H](CC1CCCCC1)NC(=O)c1ccno1)C(=O)N1CCC2(CCc3ccccc3O2)CC1	77	–	IC50 ([2]; read-out: IC50): 1.9 µM
CC[C@H](C)[C@H](NC(=O)[C@H](CC1CCCCC1)NC(=O)c1ccno1)C(=O)N1CCC2(CC1)CC(=O)c1ccccc1O2	–	62 to 70	EC50 [3]: 0.7 to 1.8 µM
CC[C@H](C)[C@H](NC(=O)[C@H](CC1CCCCC1)NC(=O)c1c[nH]cn1)C(=O)N1CCC2(C=Cc3ccccc32)CC1	53	–	IC50 ([2]; read-out: IC50): 3.1 µM; solubility [5]: Soluble
NC(=O)C[C@H](NC(=O)[C@H](CC1CCCCC1)NC(=O)c1ccno1)C(=O)N1CCC2(C=Cc3ccccc32)CC1	–	53 to 81	–
O=C(N[C@@H](CC1CCCCC1)C(=O)N[C@@H](Cc1cnc[nH]1)C(=O)N1CCC2(C=Cc3ccccc32)CC1)c1ccno1	–	53 to 81	–
CC[C@H](C)[C@H](NC(=O)[C@H](CC1CCCCC1)NC(=O)c1cscn1)C(=O)N1CCC2(C=Cc3ccccc32)CC1	70	–	–
CC[C@H](C)[C@H](NC(=O)[C@H](CC1CCCCC1)NC(=O)c1ccno1)C(=O)N1CCC(NC(C)=O)(c2ccccc2)CC1	–	81	–
CC[C@H](C)[C@H](NC(=O)[C@H](CC1CCCCC1)NC(=O)c1ccon1)C(=O)N1CCC2(C=Cc3ccccc32)CC1	27	21	–
CC(C)(NC(=O)[C@H](CC1CCCCC1)NC(=O)c1ccno1)C(=O)N1CCC2(C=Cc3ccccc32)CC1	10 to 16	–	–
NCC[C@H](NC(=O)[C@H](CC1CCCCC1)NC(=O)c1ccno1)C(=O)N1CCC2(C=Cc3ccccc32)CC1	–	11	–
CC[C@H](C)[C@H](NC(=O)[C@H](CC(C)C)NC(=O)[C@@H](N)CO)C(=O)NCC(=O)N[C@@H](CCCNC(=N)N)C(=O)N[C@@H](CC(C)C)C(N)=O (H-SLIGRL-NH2)	–	–	half-life at 10 µM [6]: 15 min; half-life at 10 µM [7]: 20 min
C[C@@H](O)[C@H](NC(=O)[C@H](CC1CCCCC1)NC(=O)c1ccno1)C(=O)N1CCC2(C=Cc3ccccc32)CC1	–	53 to 81	–
CC[C@H](C)[C@H](NC(=O)[C@H](CC1CCCCC1)NC(=O)c1cc(CN)no1)C(=O)N1CCC2(C=Cc3ccccc32)CC1	62	–	IC50 ([2]; read-out: IC50): 8.9 µM; IC50 ([2]; read-out: pIC50 (converted)): 10 µM; solubility [5]: Soluble
CC[C@H](C)[C@H](NC(=O)[C@H](CC1CCCCC1)NC(=O)c1ccno1)C(=O)N1CCC(c2cc(OC)ccc2OC)CC1	43 to 69	–	–
CC[C@H](C)[C@H](NC(=O)[C@H](CC1CCCCC1)NC(=O)c1nc[nH]n1)C(=O)N1CCC2(C=Cc3ccccc32)CC1	43	–	–
CC[C@H](C)[C@H](NC(=O)[C@H](CC1CCCCC1)NC(=O)c1ccno1)C(=O)N1CCN(c2ccccc2)CC1	–	30 to 50	–

SMILES	inhibition [1] [%]	Activity [4] [%]	also measured
CC[C@H](C)[C@H](NC(=O)[C@H](CC1CCCCC1)NC(=O)c1cc(N)n[nH]1)C(=O)N1CCC2(C=Cc3ccccc32)CC1	–	26	–
CC[C@H](C)[C@H](NC(=O)[C@H](CC1CCCCC1)NC(=O)c1ccno1)C(=O)N1CCc2cc(OC)c(OC)cc2C1	–	65	–
CC[C@H](C)[C@H](NC(=O)[C@H](CC1CCCCC1)NC(=O)c1ccno1)C(=O)N1CCC2(CC1)c1ccccc1C1OC12 (some centres undefined)	–	65	EC50 [3]: 0.7 to 1.8 µM
CC[C@H](C)[C@H](NC(=O)[C@H](CC1CCCCC1)NC(=O)c1cc(N)no1)C(=O)N1CCC2(C=Cc3ccccc32)CC1	91	–	remaining at 3 h, 10 µM [8]: > 75%; inhibition (Rattus norvegicus): Active; half-life at 10 µM [6]: 15 min; solubility [5]: Soluble
CC[C@H](C)[C@H](NC(=O)[C@H](CC1CCCCC1)NC(=O)c1ccno1)C(=O)N1CCN(Cc2ccc(F)cc2)CC1	–	30 to 50	–
CC[C@H](C)[C@H](NC(=O)[C@H](CC1CCCCC1)NC(=O)c1ccno1)C(=O)N1CCC(c2ccc(OC)cc2)CC1	43 to 69	–	–
CC[C@H](C)[C@H](NC(=O)[C@H](CC1CCCCC1)NC(=O)c1ccno1)C(=O)N1CCC(O)(c2ccc(C(F)(F)F)cc2C(F)(F)F)CC1	43 to 69	–	–
CC(C)(C)[C@H](NC(=O)[C@H](CC1CCCCC1)NC(=O)c1ccno1)C(=O)N1CCC2(C=Cc3ccccc32)CC1	10 to 16	–	–
O=C(N[C@@H](CC1CCCCC1)C(=O)N[C@@H](CC1CCCCC1)C(=O)N1CCC2(C=Cc3ccccc32)CC1)c1ccno1	10 to 16	–	–
CC[C@H](C)[C@H](NC(=O)[C@H](CC1CCCCC1)NC(=O)c1ccno1)C(=O)N1CCCC[C@H]1C(=O)NC(C)(C)C	64	–	–
CC[C@H](C)[C@H](NC(=O)[C@H](CC1CCCCC1)NC(=O)c1ccno1)C(=O)N1CC[C@H]2CCCC[C@H]2[C@H]1C(=O)NC(C)(C)C	38	–	–
CC[C@H](C)[C@H](NC(=O)[C@H](CC1CCCCC1)NC(=O)c1ccno1)C(=O)N1CCC(c2ccccc2)CC1	93	–	AUC(0-t) at 6 h [9]: 1960 ng·h/mL; remaining at 3 h, 10 µM [8]: > 75%; inhibition (Rattus norvegicus): Active; Time [10]: 2 to 3 h; half-life at 10 µM [6]: 30 min
CC[C@H](C)[C@H](NC(=O)[C@H](CC1CCCCC1)NC(=O)c1ccno1)C(=O)N1CCC(c2ccccc2C(F)(F)F)CC1	43 to 69	–	–
CC[C@H](C)[C@H](NC(=O)[C@H](CC1CCCCC1)NC(=O)c1ccno1)C(=O)N1CCN(c2ccc(F)cc2)CC1	–	30 to 50	–
CC[C@H](C)[C@H](NC(=O)[C@H](CC1CCCCC1)NC(=O)c1ccno1)C(=O)N1CCC2(CC1)OC(=O)c1ccccc12	–	62 to 70	EC50 [3]: 0.7 to 1.8 µM
CC[C@H](C)[C@H](NC(=O)[C@H](CC1CCCCC1)NC(=O)c1ccno1)C(=O)N1CCC2(C=Cc3ccccc32)CC1	92	–	IC50 [11]: 3.6 µM; remaining at 3 h, 10 µM [8]: > 75%; IC50 ([2]; read-out: IC50): 1.1 to 1.7 µM; IC50 ([2]; read-out: pIC50 (converted)): 1.58 µM; half-life at 10 µM [6]: 60 min
CO[C@H](C)[C@H](NC(=O)[C@H](CC1CCCCC1)NC(=O)c1ccno1)C(=O)N1CCC2(C=Cc3ccccc32)CC1	–	53 to 81	–
